This series in a line: Dynamic vapor sorption (DVS) adsorption/desorption. Format: physicochemical. Conditions: up to 95% RH; isothermal at 25° C.; water as solvent. Here is the method:
The Adsorption/Desorption determination was performed using a Q5000 V3.3 TGA-SA instrument. […] The ramp was isothermal at 25° C. Water was used as the solvent for all DVS analysis. The data was analyzed with the Universal Analysis 2000 software.

Take `Fc1ccccc1Cc1nc(-c2nc(C(F)(F)F)n[nH]2)cn2ccnc12` [Form A, 8-(2-fluorobenzyl)-6-(3-(trifluoromethyl)-1H-1,2,4-triazol-5-yl)imidazo[1,2-a]pyrazine]: the “moisture picked up (DVS)” value is “less than 0.4%”.

These data come from patent US12122782B2, “Crystalline forms of 8-(2-fluorobenzyl)-6-(3-(trifluoromethyl)-1H-1,2,4-triazol-5-yl)imidazo[1,2-a]pyrazine as sGC stimulators” (Tisento Therapeutics Inc., priority 2018, dated 2024).
